Values quoted from earlier work, collected in patent US20050148561A1, “Novel triterpene derivatives, preparation thereof and use thereof” (Panacos Pharmaceuticals, Inc., priority 2003, published 2005).
Where two headings read alike, the source gives them in different places.

Tested on: HIV-1

For `CC(C)[C@@H]1CC[C@]2(C(=O)O)CC[C@]3(C)C(CCC4[C@@]5(C)CC[C@H](O)C(C)(C)C5CC[C@]43C)C12` (stereo partly shown) [dihydrobetulinic acid], the T.I. (H9 lymphocyte cells) is listed as 14 and the EC50 (unit inferred, read-out: EC50, anti-HIV activity) is listed as 0.9 µM.

In the case of `CC(=O)[C@@H]1CC[C@]2(C(=O)O)CC[C@]3(C)[C@H](CC[C@@H]4[C@@]5(C)CC[C@H](O)C(C)(C)[C@@H]5CC[C@]43C)[C@@H]12` [platanic acid], the T.I. (H9 lymphocyte cells) is given as 14 and the EC50 (H9 lymphocyte cells, read-out: EC50, inhibitory activity against HIV-1 replication) is given as 6.5 µM.
